Test results from paper PMC2801429 (Journal of Alzheimer's disease : JAD, 2009).
Entries after “also recorded” stand apart in the source; their conditions may differ. Marks after values point to notes of the source that are not given here.

Tests used:
[1] = Plasma pharmacokinetics of GSPE phenolic constituents after intragastric gavage; assay type: in vivo, Sprague Dawley rats; conditions: for AUC(0-8h) / Cmax / Tmax: rat plasma, mean ± SEM; for Increase of total (free plus methylated) C AUC0-8h: rats; for Detection in rat plasma: acute oral administration of GSPE
[2] = Brain deposition of GSPE phenolic constituents; assay type: in vivo, Sprague Dawley rats; conditions: for Detection in brain tissue: rats; for Concentration in brain tissue: rats administered GSPE for 10 days (dose escalation, last dose 150 mg/kg BW), perfused brain, mean ± SEM
[3] = humans; four week multiple dose administration; cited from earlier work
[4] = acute and single dose studies; cited from earlier work
[5] = single intragastric gavage 50 mg GSE/kg BW
[6] = single intragastric gavage 100 mg GSE/kg BW
[7] = single intragastric gavage 150 mg GSE/kg BW
[8] = 10 day repeated GSPE pretreatment prior to pharmacokinetic dose
[9] = single acute GSPE dose (50, 100 or 150 mg/kg BW)

Structure (SMILES)	AUC(0-8h) [1, 5]	Cmax [1, 5]	Tmax [1, 5] [h]	AUC(0-8h) [1, 6]	Cmax [1, 6]	Tmax [1, 6] [h]	AUC(0-8h) [1, 7]	Cmax [1, 7]	Tmax [1, 7] [h]	Detection in brain tissue [2, 8]	Improvement of bioavailability by multiple dosing [3] [%]	Increase of total (free plus methylated) C AUC0-8h ([1]; 50 to 100 mg/kg BW dose) [%]	Increase of total (free plus methylated) C AUC0-8h ([1]; 100 to 150 mg/kg BW dose) [%]	Detection in rat plasma [1]	Concentration in brain tissue [2] [pg/g]	Detection in brain tissue [2, 9]	Bioavailability [4]
COc1cc([C@H]2Oc3cc(O)cc(O)c3C[C@H]2O)ccc1O [3′-OMeEC, 3′-O-methylepicatechin]	60.5 ± 4.1 ^a ng/mL*h	36.8 ± 5.8 ^a ng/mL	1.0 ± 0.0	266.6 ± 61.4 ^b ng/mL*h	105.9 ± 22.0 ^a ng/mL	1.5 ± 0.2	639.5 ± 67.0 ^c ng/mL*h	167.7 ± 19.6 ^a ng/mL	1.3 ± 0.2	Trace but not quantifiable levels	–	–	–	–	–	–	–
COc1cc([C@H]2Oc3cc(O)cc(O)c3C[C@@H]2O)ccc1O [3′-OMeC, 3′-O-methylcatechin]	44.1 ± 4.9 ^a ng/mL*h	22.7 ± 3.5 ^a ng/mL	1.0 ± 0.0	184.8 ± 45.3 ^a ng/mL*h	75.5 ± 14.0 ^b ng/mL	1.4 ± 0.2	465.1 ± 45.1 ^b ng/mL*h	129.3 ± 13.2 ^c ng/mL	1.3 ± 0.2	Trace but not quantifiable levels	–	–	–	–	–	–	–
O=C(O[C@@H]1Cc2c(O)cc(O)cc2O[C@@H]1c1cc(O)c(O)c(O)c1)c1cc(O)c(O)c(O)c1 [EGCG, epigallocatechin-gallate]	–	–	–	–	–	–	–	–	–	–	> 60	–	–	–	–	–	–
Oc1cc(O)c2c(c1)OC(c1ccc(O)c(O)c1)C(O)C2 (single isomer, unassigned; (+)) [C, (+)-catechin]	398.5 ± 80.5 ^a ng/mL*h	207.5 ± 34.8 ^a ng/mL	1.7 ± 0.7	606.1 ± 64.6 ^a ng/mL*h	289.9 ± 37.2 ^a ng/mL	1.8 ± 0.2	1168.2 ± 143.6 ^b ng/mL*h	442.4 ± 49.1 ^b ng/mL	1.1 ± 0.2	detectable levels	–	78	106	detected	576.7 ± 227.7	not detectable	< 2 % of oral dose
O=C(O)c1cc(O)c(O)c(O)c1 [GA, Gallic acid]	–	–	–	–	–	–	–	–	–	detectable levels; also recorded: trace levels	–	–	–	–	–	No detectable amounts	< 2 % of oral dose
Oc1cc(O)c2c(c1)O[C@H](c1ccc(O)c(O)c1)[C@H](O)C2 [EC, (−)-epicatechin]	–	–	–	–	–	–	–	–	–	detectable levels	–	–	–	detected	290.7 ± 45.9	not detectable	< 2 % of oral dose
